Laboratory results published in PMC4731787, “Structural basis for the recognition of two consecutive mutually interacting DPF motifs by the SGIP1 μ homology domain” (Scientific Reports, 2016).
Like-named read-outs stand apart in the source and are kept apart here.

Molecular target: T1, SGIP1 μHD (residues 552 to 828) (Homo sapiens, UniProt Q9BQI5)
T1 construct: the SGIP1 μHD (residues 552 to 828); GST (N, cleaved yes); made in house; host or cells: Escherichia coli BL21-Gold (DE3) or Rosetta2
T1 sequence (Q9BQI5 552-828): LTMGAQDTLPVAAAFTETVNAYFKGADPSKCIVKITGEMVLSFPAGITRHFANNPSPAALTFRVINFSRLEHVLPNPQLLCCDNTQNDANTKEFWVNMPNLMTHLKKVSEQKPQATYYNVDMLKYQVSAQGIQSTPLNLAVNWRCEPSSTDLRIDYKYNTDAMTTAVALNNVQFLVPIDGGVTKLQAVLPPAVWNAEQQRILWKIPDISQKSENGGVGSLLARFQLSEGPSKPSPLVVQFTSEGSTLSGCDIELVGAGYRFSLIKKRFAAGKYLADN
Assay: ITC of Eps15 fragments with the SGIP1 μHD
Format: binding
Settings: for -TΔS / ΔG / ΔH / Kd: 25 °C; for -TΔS / ΔG / ΔH / N (binding ratio of Eps15 fragment to μHD): μHD in cell titrated with fragment; for -TΔS / ΔG / ΔH / N (binding ratio of Eps15 fragment to μHD) / Kd: single-site model; for ΔH / N (binding ratio of Eps15 fragment to μHD) / Kd: ± 68.3% confidence interval; for Kd: 50 mM Tris-HCl pH 8.0, 50 mM NaCl, μHD in sample cell titrated with Eps15 fragment, global fit of two runs
Experimental: For the majority of the ITC experiments, the SGIP1 μHD, its mutants, or the FCHo1 μHD, in 50 mM Tris-HCl buffer (pH 8.0) containing 50 mM NaCl, was loaded in the sample cell, in a volume of 1.42 ml, and titrated with various Eps15-derived fragments or peptides in the same buffer, with an initial 5 μl injection and subsequent 10 μl injections, for a total of 25 injections. The titrations were performed while the samples were stirred at 310 r.p.m. at 25 °C. Each injection was followed by an interval of 4 min, to allow baseline stabilization. For the other ITC experiments indicated in Supplementary Table 2, the Eps15-derived fragments or peptides in the sample cell were titrated with the SGIP1 or FCHo1 μHD. All ITC experiments were performed on a VP-ITC microcalorimeter (MicroCal, LLC) and repeated twice, and the data were processed with the program NITPIC[42]. The two data sets from each ITC experiment were analyzed by global weighted least-squares fitting with the program SEDPHAT[43]. Figures for the ITC data were created with the program GUSSI (http://biophysics.swmed.edu/MBR/software.html). To obtain the values of the traditional stoichiometric parameter N in our ITC data analyses (Supplementary Table 2), we used the values of the parameters of the incompetent fractions of proteins and ligands. […] The values of the incompetent fractions are between 0 and 1, whereas the other parameter affecting the traditional parameter N, the number of sites, was fixed as 1 and 2, for the single- and two-site models, respectively. Thus, in the two-site model, the values of N for the first and second sites are identical in our ITC data analyses (Supplementary Table 2).

Substance | -TΔS [kcal/mol] | ΔG [kcal/mol] | ΔH [kcal/mol] | N (binding ratio of Eps15 fragment to μHD) | Kd (read-out: Kd) [µM] | Strength of affinity (human SGIP1 µHD (aa552–828), Supplementary Table 3, This study) | Kd | binding to the SGIP1 μHD (in words)
Ac-YEPFGGDPFKG-NH2 [Eps15-640–649D640E] | -0.851 | -4.759 | -3.908 ± 0.595 |  |  |  |  | 
Ac-YKDDPFGKIDPFGG-NH2 [Eps15-632–644] | -0.071 | -5.584 | -5.513 ± 0.12 |  |  |  |  | 
Ac-YKDDPFGKIDPFGGDPFKGSDPFA-NH2 [Eps15-632–654] | 1.453 | -7.491 | -8.944 ± 0.142 | 0.70 ± 0.01 |  |  |  | 
Ac-YNPFGGDPFKG-NH2 [Eps15-640–649D640N] | -0.585 | -5.441 | -4.856 ± 0.193 |  |  |  |  | 
Ac-YSDPFKDDPFGKI-NH2 [Eps15-628–639] | 1.528 | -4.882 | -6.41 ± 0.646 |  |  |  |  | 
Ac-YSDPFKDDPFGKIDPFGG-NH2 [Eps15-628–644] | 1.615 | -6.404 | -8.019 ± 0.169 | 0.76 ± 0.01 |  |  |  | significantly weaker affinity than Eps15-622–637 and Eps15-640–654
Ac-YSDPFKDDPFGKIDPFGGDPFKGSDPFA-NH2 [Eps15-628–654] | 1.711 | -8.135 | -9.846 ± 0.223 | 0.67 ± 0.01 | 1.1 ± 0.1 |  |  | 
Ac-YSDPFVGSDPFKDDPFG-NH2 [Eps15-622–637] | 1.967 | -7.247 | -9.214 ± 0.138 | 0.85 ± 0.01 |  |  |  | significantly reduced affinity as compared with that of Eps15-530–896
Eps15-618–648: Eps15 fragment containing the first five DPF motifs of Eps15-618–654 (DFFQSDPFVGSDPFKDDPFGKIDPFGGDPFK; UniProt P42566 618-648, looked up, fragment) | 0.581 | -8.722 | -9.303 ± 0.257 | 0.71± 0.02 |  |  |  | 
Eps15-640–649D645E: D645E mutant of Eps15-640–649 (Ac-YDPFGGEPFKG-NH2) |  |  |  |  |  |  | below detection limit | 

More lines, main results first:

-TΔS [kcal/mol] | ΔG [kcal/mol] | ΔH [kcal/mol] | N (binding ratio of Eps15 fragment to μHD) | Kd (read-out: Kd) [µM] | Strength of affinity (human SGIP1 µHD (aa552–828), Supplementary Table 3, This study) | Kd | Substance | binding to the SGIP1 μHD (in words)
-1.138 | -5.642 | -4.504 ± 0.155 |  |  |  |  | Ac-YDPFGGNPFKG-NH2 [Eps15-640–649D645N] | 
3.566 | -6.344 | -9.91 ± 0.683 | 0.75 ± 0.02 |  |  |  | Ac-YDPFKGSDPFA-NH2 [Eps15-645–654] | 
2.227 | -4.965 | -7.192 ± 0.527 |  |  |  |  | Ac-YDPWGGDPFKG-NH2 [Eps15-640–649F642W] | 
1.395 | -5.327 | -6.722 ± 1.053 |  |  | low |  | Ac-YSTDPFATSSTDPFSA-NH2 [Eps15-662–676] | weakly bound to the μHD
 |  |  |  |  |  | below detection limit | Eps15-640–649F647W: F647W mutant of Eps15-640–649 (Ac-YDPFGGDPWKG-NH2) | 
 |  |  |  |  |  | below detection limit | Eps15-640–649P641L: P641L mutant of Eps15-640–649 (Ac-YDLFGGDPFKG-NH2) | 
 |  |  |  |  |  | below detection limit | Eps15-640–649P646L: P646L mutant of Eps15-640–649 (Ac-YDPFGGDLFKG-NH2) | 
 |  |  |  |  |  | below detection limit | Eps15-643–650: Eps15 fragment, residues 643–650, 1 DPF motif (Ac-YGGDPFKGS-NH2) | 
 |  |  |  |  |  | below detection limit | Eps15-650–659: Eps15 fragment, residues 650–659, 1 DPF motif (Ac-YSDPFASDCFF-NH2) | 
 |  |  |  |  |  | below detection limit | Eps15-797–807: Eps15 fragment spanning residues 797 to 807, 2 DPF motifs (Ac-YPDPFKLNDPFQ-NH2) | did not
